Measurements from patent US6949544B2, “Inhibitors of c-Jun N-terminal kinases (JNK) and other protein kinases” (Vertex Pharmaceuticals Incorporated, priority 2001, dated 2005).

How the values were obtained:
Assay type in all cases: biochemical
activated JNK3 = molecular target: T1, activated JNK3 (Homo sapiens, UniProt P53779); test: JNK inhibition assay (spectrophotometric coupled-enzyme assay); conditions: 10 nM activated JNK3, 10 μM ATP; read-out: Activity in the JNK3 Inhibition Assay (Ki rating A-C)
T1 construct: One such construct encodes amino acid residues Ser40-Glu402 of JNK3α1 and is preceded by Met and Gly residues; Met-Gly (initiator methionine and added glycine) (N); made in house; host or cells: E. coli BL21 (DE3)
Text: A BLAST search of the EST database using the published JNK3α1 cDNA as a query identified an EST clone (#632588) that contained the entire coding sequence for human JNK3α1. Polymerase chain reactions (PCR) using pfu polymerase (Strategene) were used to introduce restriction sites into the cDNA for cloning into the pET-15B expression vector at the NcoI and BamHI sites. The protein was expressed in E. coli. […] This truncation corresponds to Ser 2 of JNK1 and JNK2 proteins, and is preceded by a methionine (initiation) and a glycine residue. The glycine residue was added in order to introduce an NcoI site for cloning into the expression vector. In addition, systematic C-terminal truncations were performed by PCR to identify a construct that give rise to diffraction-quality crystals.
5 mg of JNK3 was diluted to 0.5 mg/ml in 50 mM HEPES buffer, pH 7.5, containing 100 mM NaCl, 5 mM DTT, 20 mM MgCl2 and 1 mM ATP. GST-MKK7(DD) was added at a molar ratio of 1:2.5 GST-MKK7:JNK3. After incubation for 30 minutes at 25° C., the reaction mixture was concentrated 5-fold by ultrafiltration in a Centriprep-30 (Amicon, Beverly, Mass.), diluted to 10 ml and an additional 1 mM ATP added. This procedure was repeated three times to remove ADP and replenish ATP. The final addition of ATP was 5 mM and the mixture incubated overnight at 4° C.
The activated JNK3/GST-MKK7(DD) reaction mixture was exchanged into 50 mM HEPES buffer, pH 7.5, containing 5 mM DTT and 5% glycerol (w/v) by dialysis or ultrafiltration. The reaction mixture was adjusted to 1.1 M potassium phosphate, pH 7.5, and purified by hydrophobic interaction chromatography (at 25° C.) using a Rainin Hydropore column. […] Activated JNK3 (i.e. doubly phosphorylated JNK3) was stored at −70° C. at 0.25-1 mg/ml.
Compounds were assayed for the inhibition of JNK3 by a spectrophotometric coupled-enzyme assay. In this assay, a fixed concentration of activated JNK3 (10 nM) was incubated with various concentrations of a potential inhibitor dissolved in DMSO for 10 minutes at 30° C. in a buffer containing 0.1 M HEPES buffer, pH 7.5, containing 10 mM MgCl2, 2.5 mM phosphoenolpyruvate, 200 μM NADH, 150 μg/mL pyruvate kinase, 50 μg/mL lactate dehydrogenase, and 200 μM EGF receptor peptide. […] The reaction was initiated by the addition of 10 μM ATP and the assay plate is inserted into the spectrophotometer's assay plate compartment that was maintained at 30° C. The decrease of absorbance at 340 nm was monitored as a function of time. The rate data as a function of inhibitor concentration was fitted to competitive inhibition kinetic model to determine the Ki.

CDK-2/Cyclin A = CDK-2/Cyclin A (Homo sapiens, UniProt P24941); test: CDK2 inhibition assay (standard coupled enzyme assay); conditions: 25 nM CDK-2/Cyclin A; read-out: CDK2 Inhibitory Activity (Ki rating A-C)
Procedure: Compounds were screened in the following manner for their ability to inhibit CDK2 using a standard coupled enzyme assay (Fox et al (1998) Protein Sci 7, 2249).
To an assay stock buffer solution containing 0.1M HEPES 7.5, 10 mM MgCl2, 1 mM DTT, 25 mM NaCl, 2.5 mM phosphoenolpyruvate, […], […], […], […], and 100 μM peptide ([…], American Peptide, Sunnyvale, Calif.) was added a DMSO solution of a compound of the present invention to a final concentration of 30 μM. The resulting mixture was incubated at 30° C. for 10 minutes.
The reaction was initiated by the addition of 10 μL of CDK-2/Cyclin A stock solution to give a final concentration of 25 nM in the assay. The rates of reaction were obtained by monitoring absorbance at 340 nm over a 5-minute read time at 30° C. using a BioRad Ultramark plate reader (Hercules, Calif.). The Ki values were determined from the rate data as a function of inhibitor concentration.

[1] = molecular target: T2, Lck kinase purified from bovine thymus (Bos taurus, UniProt Q3ZCM0); test: Lck inhibition assay (33P incorporation into poly Glu-Tyr); conditions: for Ki: 10 μM ATP, read-out: Activity in the Lck Inhibition Assay (Ki rating A-C)
T2 construct: Lck kinase purified from bovine thymus; purchased Upstate Biotechnology 14-106; host or cells: bovine thymus (tissue-purified)
Procedure: The compounds were assayed as inhibitors of Lck kinase purified from bovine thymus (from Upstate Biotechnology, cat. no. 14-106). Lck kinase activity was monitored by following the incorporation of ^33P from ATP into the tyrosine of a random poly Glu-Tyr polymer substrate of composition, Glu:Tyr=4:1 (Sigma, cat. no. P-0275). The following were the final concentrations of the assay components: 0.05 M HEPES, pH 7.6, 10 mM MgCl2, 2 mM DTT, 0.25 mg/ml BSA, 10 μM ATP (1-2 μCi ^33P-ATP per reaction), 5 mg/ml poly Glu-Tyr, and 1-2 units of lck kinase. In a typical assay, all the reaction components with the exception of ATP were pre-mixed and aliquoted into assay plate wells. […] The assay plate was incubated at 30° C. for 10 min before initiating the reaction with ^33P-ATP. After 20 min of reaction, the reactions were quenched with 150 μl of 10% trichloroacetic acid (TCA) containing 20 mM Na3PO4. The quenched samples were then transferred to a 96-well filter plate (Whatman, UNI-Filter GF/F Glass Fiber Filter, cat no. 7700-3310) installed on a filter plate vacuum manifold. Filter plates were washed four times with 10% TCA containing 20 mM Na3PO4 and then 4 times with methanol. 200 μl of scintillation fluid was then added to each well. The plates were sealed and the amount of radioactivity associated with the filters was quantified on a TopCount scintillation counter.

T1 sequence (P53779 40-402): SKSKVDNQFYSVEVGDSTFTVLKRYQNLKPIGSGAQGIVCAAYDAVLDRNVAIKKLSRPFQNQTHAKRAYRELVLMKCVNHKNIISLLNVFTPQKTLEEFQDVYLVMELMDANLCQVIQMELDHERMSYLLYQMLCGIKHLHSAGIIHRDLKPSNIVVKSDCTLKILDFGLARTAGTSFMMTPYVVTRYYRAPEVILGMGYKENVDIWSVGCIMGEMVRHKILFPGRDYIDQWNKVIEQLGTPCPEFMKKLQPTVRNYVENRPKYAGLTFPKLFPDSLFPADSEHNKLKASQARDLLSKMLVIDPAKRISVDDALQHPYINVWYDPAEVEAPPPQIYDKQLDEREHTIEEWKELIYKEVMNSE
T2 sequence (Q3ZCM0 1-509): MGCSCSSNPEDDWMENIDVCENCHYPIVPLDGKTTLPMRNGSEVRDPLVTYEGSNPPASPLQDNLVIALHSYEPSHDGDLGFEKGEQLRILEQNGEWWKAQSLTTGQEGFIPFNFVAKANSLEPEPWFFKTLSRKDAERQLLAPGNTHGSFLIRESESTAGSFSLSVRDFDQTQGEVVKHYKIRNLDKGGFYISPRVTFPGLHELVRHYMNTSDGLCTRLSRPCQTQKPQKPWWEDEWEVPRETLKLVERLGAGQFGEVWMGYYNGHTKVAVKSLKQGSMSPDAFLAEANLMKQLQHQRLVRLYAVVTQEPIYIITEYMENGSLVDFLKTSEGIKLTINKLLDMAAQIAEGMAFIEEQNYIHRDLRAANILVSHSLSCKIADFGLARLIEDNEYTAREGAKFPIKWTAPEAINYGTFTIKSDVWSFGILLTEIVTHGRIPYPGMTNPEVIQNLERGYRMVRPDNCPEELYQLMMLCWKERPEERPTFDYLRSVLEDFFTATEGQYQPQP

Ki (activated JNK3) [nM] | Ki (CDK-2/Cyclin A) [nM] | Ki [1] [nM] | Compound | Activity in the Lck Inhibition Assay (percent inhibition rating D-F) ([1]; at a 5 μM inhibitor concentration)
100 to 1000 | > 5000 | – | COc1cc(-c2ccnc(Nc3c(F)cccc3F)n2)cc(OC)c1OC [Compound I-2] | –
100 to 1000 | > 5000 | – | COc1cc(-c2ccnc(Nc3ccccc3C)n2)cc(OC)c1OC [Compound I-7] | –
> 1000 | > 5000 | – | COc1cc(-c2ccnc(Nc3c(C)cccc3C)n2)cc(OC)c1OC [Compound I-8] | –
< 100 | > 5000 | – | COc1cc(-c2ccnc(Nc3ccc([N+](=O)[O-])cc3)n2)cc(OC)c1OC [Compound I-11] | –
> 1000 | – | – | COc1cc(-c2ccnc(Nc3ccc(F)cc3)n2)cc(OC)c1OC [Compound I-14] | –
< 100 | > 5000 | – | COc1cc(-c2ccnc(Nc3ccccc3)n2)cc(OC)c1OC [Compound I-15] | –
< 100 | > 5000 | – | COc1cc(-c2ccnc(Nc3ccccc3C)n2)cc(OC)c1OC [Compound I-16] | –
< 100 | – | – | COc1cc(-c2ccnc(Nc3ccc(C)cc3)n2)cc(OC)c1OC [Compound I-17] | –
< 100 | > 5000 | – | COc1cc(-c2ccnc(Nc3cccc(C(F)(F)F)c3)n2)cc(OC)c1OC [Compound I-19] | –
< 100 | – | – | COc1ccc(Nc2nccc(-c3cc(OC)c(OC)c(OC)c3)n2)cc1 [Compound I-21] | –
< 100 | > 5000 | – | COc1cc(-c2ccnc(Nc3cc(Cl)cc(Cl)c3)n2)cc(OC)c1OC [Compound I-23] | –
100 to 1000 | > 5000 | – | COc1cc(-c2ccnc(Nc3cc(C)cc(C)c3)n2)cc(OC)c1OC [Compound I-24] | –
< 100 | – | – | COc1cc(-c2ccnc(Nc3ccc(C)c(C)c3)n2)cc(OC)c1OC [Compound I-25] | –
100 to 1000 | > 5000 | – | COc1cc(-c2ccnc(Nc3ccccc3)n2)cc2c1OCO2 [Compound I-26, [4-(7-Methoxy-benzo[1,3]dioxol-5-yl)-pyrimidin-2-yl]-phenyl-amine] | –
> 1000 | – | – | COc1cc(-c2ccnc(Nc3cccc(C)c3)n2)cc2c1OCO2 [Compound I-27] | –
100 to 1000 | – | – | COc1cc(-c2ccnc(Nc3ccc(C)cc3)n2)cc2c1OCO2 [Compound I-28] | –
100 to 1000 | – | – | COc1cc(-c2ccnc(Nc3cccc(F)c3)n2)cc2c1OCO2 [Compound I-29] | –
> 1000 | – | – | COc1cc(-c2ccnc(Nc3cccc(Cl)c3)n2)cc2c1OCO2 [Compound I-30] | –
> 1000 | – | – | COc1cc(-c2ccnc(Nc3cccc(C(F)(F)F)c3)n2)cc2c1OCO2 [Compound I-31] | –
100 to 1000 | > 5000 | – | COc1cccc(Nc2nccc(-c3cc(OC)c4c(c3)OCO4)n2)c1 [Compound I-32] | –
100 to 1000 | > 5000 | – | COc1ccc(Nc2nccc(-c3cc(OC)c4c(c3)OCO4)n2)cc1 [Compound I-33] | –
< 100 | > 5000 | – | COc1cc(-c2ccnc(Nc3cccc([N+](=O)[O-])c3)n2)cc(OC)c1OC [Compound I-36] | –
< 100 | > 5000 | – | CCOc1c(OC)cc(-c2ccnc(Nc3cccc(Cl)c3)n2)cc1OC [Compound I-40] | –

Ki (activated JNK3) [nM] | Ki (CDK-2/Cyclin A) [nM] | Ki [1] [nM] | Compound | Activity in the Lck Inhibition Assay (percent inhibition rating D-F) ([1]; at a 5 μM inhibitor concentration)
< 100 | > 5000 | – | COc1cc(-c2ccnc(Nc3cccc(F)c3)n2)cc(OC)c1OCCN1CCOCC1 [Compound I-44] | –
< 100 | > 5000 | – | CCOc1c(OC)cc(-c2ccnc(Nc3cccc(F)c3)n2)cc1OC [Compound I-45] | –
100 to 1000 | > 5000 | – | COc1c(Cl)cc(-c2ccnc(Nc3cccc(F)c3)n2)cc1Cl [Compound I-46] | –
< 100 | – | – | COc1c(C)cc(-c2ccnc(Nc3cccc(F)c3)n2)cc1C [Compound I-47] | –
< 100 | > 5000 | – | COc1cc(-c2ccnc(Nc3cccc(C)c3)n2)cc(OC)c1OCCN1CCOCC1 [Compound I-53] | –
< 100 | > 5000 | – | CCOc1c(OC)cc(-c2ccnc(Nc3cccc(C)c3)n2)cc1OC [Compound I-54] | –
< 100 | > 5000 | – | COc1c(Cl)cc(-c2ccnc(Nc3cccc(C)c3)n2)cc1Cl [Compound I-55] | –
> 1000 | > 5000 | – | COc1cc(-c2ccnc(Nc3cccc(OCc4ccccc4)c3)n2)cc(OC)c1OC [Compound I-56] | –
> 1000 | – | – | CCc1nnc(Nc2nccc(-c3cc(OC)c(OC)c(OC)c3)n2)s1 [Compound I-84] | –
100 to 1000 | – | – | COc1cc(-c2ccnc(Nc3cccc(Cl)c3)c2)cc(OC)c1OC [Compound I-146, (3-Chlorophenyl)-[4-(3,4,5-trimethoxyphenyl)-pyridin-2-yl]-amine] | –
100 to 1000 | – | – | COc1cc(-c2ccnc(Nc3ccccc3Cl)c2)cc(OC)c1OC [Compound I-147] | –
100 to 1000 | – | – | COc1cc(-c2ccnc(Nc3c(F)cccc3F)c2)cc(OC)c1OC [Compound I-151] | –
100 to 1000 | – | – | COc1cc(-c2ccnc(Nc3cccc(F)c3)c2)cc(OC)c1OC [Compound I-154] | –
100 to 1000 | – | – | COc1cc(-c2ccnc(Nc3ccccc3)c2)cc(OC)c1OC [Compound I-155] | –
– | – | 100 to 1000 | COc1ccc(-c2ccnc(Nc3cccc(OCc4ccccc4)c3)n2)c(OC)c1OC [II-2] | –
– | – | 100 to 1000 | COc1ccc(-c2ccnc(Nc3ccc([N+](=O)[O-])cc3)n2)c(OC)c1OC [II-4] | –
– | – | > 1000 | COc1ccc(-c2ccnc(Nc3cccc(F)c3)n2)c(OC)c1OC [II-5] | –
– | – | 100 to 1000 | COc1cccc(Nc2nccc(-c3ccc(OC)c(OC)c3OC)n2)c1 [II-6] | –
– | – | > 1000 | COc1ccc(-c2ccnc(Nc3cccc(C)c3)n2)c(OC)c1OC [II-10] | –
– | – | 100 to 1000 | COc1ccc(Nc2nccc(-c3ccc(OC)c(OC)c3OC)n2)cc1 [II-12] | –
– | – | – | COc1ccc(-c2ccnc(Nc3cc(C)cc(C)c3)n2)c(OC)c1OC [II-14, (3,5-Dimethylphenyl)-[4-(2,3,4-trimethoxyphenyl)-pyrimid-2-yl]-amine] | F (percent inhibition of between 67% and 100%)
– | – | 100 to 1000 | COc1ccc(-c2ccnc(Nc3cccc(Oc4ccccc4)c3)n2)c2c1OCCO2 [II-15] | –
– | > 5000 | – | COc1ccc(-c2ccnc(Nc3n[nH]c4ccccc34)n2)c(OC)c1OC [II-56] | –
